One data set relates to MCF-7 human breast tumor. As to the kind of experiment: MCF-7 human breast cancer xenograft model. The format is in vivo, Nude mice. Conditions: 0.5% w/v in drinking water; for animals with partial tumor shrinkage: Day 90, eight animals per group; for mean partial tumor shrinkage: Day 90, in the animals with shrinkage; for tumor growth inhibition: Day 90, in the animals without shrinkage. The protocol:
FIG. 11 Mean Tumor weight of MCF-7 human breast tumors in nude […].
Nude mice were implanted with the estrogen-dependent human breast tumor line, MCF-7 (ATCC #HTB22). […] The experiment was terminated on Day 90 (when control tumors had reached a size of 400 mg.). Mice were weighed twice weekly, and tumor measurements were taken by calipers twice weekly, starting at time of DFMO administration (Day 1). Tumor measurements were converted to mg tumor weight by the formula, L^2×W/2.

The conditions of data set [1]: rat, in vivo, po, 200 mg/kg.
Data set [2] is described as follows: Plasma levels in rats after single oral dose.
Data set [3] concerns pigmented guinea pigs. As to the kind of experiment: General toxicity in guinea pigs (mortality, weight gain), daily ip injection. The format is in vivo, guinea pig. From the text:
Daily weight measurements determined the injection volume.

Data set [4] has as its system pigmented guinea pigs. The protocol: Auditory thresholds were assessed in the 0.5 g/kg and 1 g/kg/day subjects at day 45 of dosing while the 2 g/kg/day subjects were evaluated at 22 days of dosing. […] Daily weight measurements determined the injection volume. Assessment of auditory function occurred at the conclusion of dosing.
Injections, determined by daily weight measurements, were made ip daily for 45 days.
Continuous tones were used for eliciting CM. Tone bursts were used to elicit the CAP.

For data set [5] the following is noted: rats, 200 mg/kg/day to 1.2 g/kg/day by intubation, up to eight weeks.
Experimental: Twenty-four Long Evans pigmented rats (250-275 g) were acquired from Harlan Sprague Dawley (Indianapolis, Ind.) and thirty-six pigmented guinea pigs obtained from Kuiper Rabbit Ranch (Gary, Ind.) at an initial weight of 200-250 g and housed in University of Oklahoma Health Sciences Center animal facility. Subjects were housed under a 12:12 hr light dark cycle with free access to food and water with a room temperature controlled at 21° C.
Twenty-four animals were randomly placed into 8 groups of three subjects each. […] Four additional animals were randomly placed into 2 subsequent groups: 400 and 600 mg/kg/day by gavage twice a day (5 days/week) for 8 weeks. […] Weight measurements were taken daily (5 days/week) with assessment of auditory function performed at the conclusion of dosing.
In a further data set the test system is tumor putrescine levels. Conditions: rat-tumor model, infusion; cited from earlier work.
In data set [6] the test system is hair cells of the basilar membrane. As to the kind of experiment: Histology of Organ of Corti surface preparations (SDH staining, hair cell damage). Conditions: one guinea pig, 1 g/kg/day for 45 days; most apical 40% normal.
Experimental: Surface preparations of the Organ of Corti were evaluated in a limited number of subjects. The animals were decapitated while deeply anesthetized after CAP and CM recording. Cochleae were removed immediately. Both the round and oval windows were opened and the apex of the cochlea was drilled open to facilitate perfusion. The cochleae were perfused with SDH (succinate dehydrogenase) incubative solution (0.05 M sodium succinate, 0.05 M phosphate buffer and 0.05% TetraNitro Blue Tetrazolium) and immersed in the solution for one h (37° C.). Then the cochleae were fixed with 10% formalin for at least 2 days. After fixation, the cochleae were decalcified in 10% EDTA solution (EthyleneDiamine Tetraacetic Acid) for 3 days or longer as needed. Cochlea microdissection was accomplished under a light microscope.
Locations along the surface of the basilar membrane were identified by percent distance from apex, and can be related to the physiological data because sound is encoded in a tonotopic fashion with the highest frequencies represented in the most basal portion of the cochlea.
The subject of data set [7] is MCF-7, LNCaP, PC-3, HT-29 cancer cell lines. Description: Induction of apoptosis in cell lines (DNA fragmentation ELISA, Hoechst staining). Conditions: DFMO forms at 1 and 10 uM. It counts as cell-based, human. The protocol:
Each of the three forms of DFMO were tested at two concentrations (1 and 10 uM). Adriamycin and calcium chloride were used as positive controls. Apoptosis was assayed using a multi-well plate DNA fragmentation assay according to the Cellular DNA Fragmentation ELISA kit (Boehringer Mannheim Biochemicals, Cat. #1585-045) and Hoechst staining.
(In an ELISA, binding on a coated surface is turned into a signal by an enzyme label.)

Where two headings read alike, the source gives them in different places.

As for `NCCC[C@@](N)(C(=O)O)C(F)F` [D-DFMO, D enantiomer of difluoromethylornithine], in the data set on MCF-7 human breast tumor, the “animals with partial tumor shrinkage” value is “four of eight”, the “mean partial tumor shrinkage” value was 62.6% and the tumor growth inhibition is given as 84.7%. For the same compound, the toxic death result in the data set on MCF-7 human breast tumor (eight animals per group) is “two animals experienced toxic death”. This compound also yielded a plasma level in data set [1] of 102 µg/mL.
With (−)-4-difluoromethyl-ornithine [L-DFMO], in the data set with MCF-7 human breast tumor, the “animals with partial tumor shrinkage” value is given as “seven of eight”, the “mean partial tumor shrinkage” value amounted to 50.0% and the tumor growth inhibition came to 5.5%. In data set [2] (200 mg/kg orally, one to two hours), this compound had a plasma level of 45 µg/mL.
Take `NCCCC(N)(C(=O)O)C(F)F` (racemic) [D,L-DFMO, 2-(Difluoromethyl)-DL-ornithine]: the “systemic toxicity (growth rate)” value with pigmented guinea pigs [3] (500 mg/kg/day ip, 45 days) was “no apparent signs of systemic toxicity”. Also, the weight gain result with pigmented guinea pigs [3] (1 g/kg/day ip, 45 days) is reported as “appear to diverge from the controls during the last 10 days”. Also, in the data set with pigmented guinea pigs [3] (1 g/kg/day ip, full 6 week dosing regimen), the “subjects that did not survive” value was “two of the five”. Further, the weight gain result in the data set on pigmented guinea pigs [3] (2 g/kg/day ip, to day 22) is on record as “effectively blocked”. In the data set on pigmented guinea pigs [3] (3 g/kg/day ip, within the first six days), the animals dying was 100%. The “average loss of auditory sensitivity (CAP), 20 to 40 kHz” value (“average loss of auditory sensitivity” for short) in the data set with pigmented guinea pigs [4] (500 mg/kg/day ip, day 45) is reported as 7.1 dB. Also, in the data set on pigmented guinea pigs [4] (500 mg/kg/day ip, day 45, all frequencies), the “CAP threshold elevation, average” value came out at 9 dB. Moreover, the “effect on CM sensitivity” value in the data set on pigmented guinea pigs [4] (500 mg/kg/day to 2 g/kg/day ip) is listed as “not effected”. Further, the “average loss of auditory sensitivity” value with pigmented guinea pigs [4] (1 g/kg/day ip, day 45) is listed as 17 dB. For the same compound, in the data set with pigmented guinea pigs [4] (2 g/kg/day ip, 22 days), the “CAP threshold average loss across all frequencies” value is given as 14 dB and the “average loss of auditory sensitivity” value worked out at 30 dB. Moreover, in the data set on MCF-7 human breast tumor, the “animals with partial tumor shrinkage” value is given as “seven of eight”, the “mean partial tumor shrinkage” value was 60.4% and the tumor growth inhibition came out at 99.2%. The weight change entry in data set [5] is on record as “does not produce any significant weight change”. In addition, the “decrease in tumor putrescine levels” value in the data set on tumor putrescine levels is recorded as 90%. For the same compound, in data set [2] (400 mg/kg orally), the maximum plasma level stood at 109 µg/mL. For the same compound, in data set [6], the “portion of basilar membrane showing hair cell damage” value came out at 60%.
Regarding `COc1cccc2c1C(=O)c1c(O)c3c(c(O)c1C2=O)C[C@@](O)(C(=O)CO)C[C@@H]3O[C@H]1C[C@H](N)[C@H](O)[C@H](C)O1` [adriamycin], the apoptosis and cytotoxicity result in data set [7] is “cytotoxic as well as apoptotic”.
